# Test results as given in patent US7968526B2, “Antisense oligonucleotides directed to ribonucleotide reductase R2 and uses thereof in the treatment of cancer” (Lorus Therapeutics Inc., priority 2003, dated 2011).
# Experiments:
# [1] = Pharmacokinetics in the rat (plasma, CE method); type: in vivo
# Procedure: The toxicokinetics and tissue distribution of SEQ ID NO:1 (and related oligonucleotide metabolites obtained from exonuclease-mediated chain shortening) were determined in rats and monkeys. In addition to investigating the pharmacokinetics and tissue distribution of SEQ ID NO:1, the purpose of the studies was to correlate adverse effects in the animal studies to the concentrations of SEQ ID NO:1 (and metabolites) in tissue and blood. A capillary electrophoresis (CE) method was used to measure the concentrations of SEQ ID NO:1 (and metabolites) in plasma and tissues.
# In a pharmacokinetic study, groups of male rats were administered one or two bolus i.v. injections (tail vein) of SEQ ID NO:1 at a dose of 50 mg/kg (295 mg/m^2) and intravenously infused (abdominal vena cava) for up to 48 h at a dose of 50 mg/kg/day (295 mg/m^2/day). Blood samples were collected into EDTA-containing tubes from subsets of animals in each group at various sampling times up to 56 h after initiation of infusion or bolus injection. Parent SEQ ID NO:1 concentrations were measured in plasma by a validated CE method.
# [2] = system: BxPC-3 human pancreatic carcinoma cells; assay: BxPC-3 gemcitabine resistant pancreatic carcinoma xenograft in CD-1 nude mice; type: in vivo, human cells in mice; details: Gemcitabine 100 mg/kg i.v. every three days
# Procedure: BxPC-3 is a gemcitabine resistant call line. […] Gemcitabine was administered intravenously every three days at a dose of 100 mg/kg. Antitumour activities were estimated by the inhibition of tumour volume, which was measured with caliper. Each point represents mean tumour volume calculated from 10 animals per experimental group. […] Hela S3 is a hydroxyurea resistant cell line. […] Hydroxyurea was administered intraperitoneally every day at a dose of 250 mg/kg for 10 days. Cisplatin was administered intravenously once a week for three weeks at a dose of 4 mg/kg. Antitumour activities were estimated by the inhibition of tumour volume, which was measured with caliper. Each point represents mean tumour volume calculated from 10 animals per experimental group. […] Cisplatin was administered intravenously once a week for three weeks at a dose of 4 mg/kg. Taxol was administered intravenously once a week for three weeks at a dose of 10 mg/kg. Antitumour activities were estimated by the inhibition of tumour volume, which was measured with caliper. Each point represents mean tumour volume calculated from 10 animals per experimental group. […] Taxol was administered i.p. once a week at a dose of 10 mg/kg. Antitumour activities were estimated by the inhibition of tumour volume (FIG. 12A), which was measured with calipers. Each point represents mean tumour volume calculated from 10 animals per experimental group. Animals were sacrificed and tumour weights taken at the end of the study (FIG. 12C). […] Cisplatin was administered intravenously once a week for four weeks at a dose of 4 mg/kg. Taxol was administered intravenously once a week for four weeks at a dose of 20 mg/kg. Antitumour activities were estimated by the inhibition of tumour volume, which was measured with caliper. Each point represents mean tumour volume calculated from 9-10 animals per experimental group. […] Cisplatin was administered intravenously once a week for four weeks at a dose of 4 mg/kg. Antitumour activities were estimated by the inhibition of tumour volume, which was measured with caliper. Each point represents mean tumour volume calculated from 10 animals per experimental group. At the end of the study the animals were sacrificed and tumours weighed. […] Taxol was administered i.p. once a week at a dose of 10 mg/kg. Anti-tumour activity was estimated by the inhibition of tumour volume, which was measured with caliper. Each point represents mean tumour volume calculated from 10 animals per experimental group. […] Antitumour activities were estimated by the inhibition of tumour volume, which was measured with caliper. Each point represents mean tumour volume calculated from 10 animals per experimental group. Tumour weights were measured after animals were sacrificed at the end of the treatment. […]
# [3] = Phase I study of SEQ ID NO:1: pharmacokinetics; details: patients
# Procedure: On Day 1 a heparinized blood sample was collected at baseline and then at 1, 2, 3, 4 and 6 hours after start of infusion. On Days 8 and 15, a single heparinized sample was taken. On Day 22 a heparinized blood sample was collected prior to the end of infusion and at 0.25, 0.5, 1, 2, 4 and 6 hours following the end of infusion. Plasma was decanted and stored at −70° C.
# Pharmacokinetic parameters were assessed. SEQ ID NO:1 was administered using a portable infusion pump in cycles of 21 days CVI followed by one week of rest. […] Doses were doubled in cohorts of 1-3 patients until the appearance of Gr 1 toxicity, with subsequent escalation of 20-30% in cohorts of 3 patients. DLT was defined as Gr 4 neutropenia lasting 3 days or with fever; Gr 4 thrombocytopenia (T) or Gr 3 T with Gr 1 bleeding; or Gr 3 non-hematologic toxicity.
# [4] = 50 mg/kg/day continuous intravenous infusion
substance,measurement,setting,value
"5′-GGCTAAATCGCTCCACCAAG-3′ (all phosphorothioate, sugars by position and methylation of C not given here) [SEQ ID NO: 1]",AUC(0-24),[1]; [4],208 µg·h/mL
same,Cl (plasma clearance),[1]; [4],3.6 mL/min/kg
same,Css (mean plasma steady state concentration),[1]; [4],9.62 µg/mL
same,Time after infusion initiation at which steady state level was achieved,[1]; [4],approximately 3 hr
same,AUC(0-24),[1]; 50 mg/kg/day i.v. bolus,369 µg·h/mL
same,AUC(0-inf),[1]; 50 mg/kg/day i.v. bolus,650 µg·h/mL
same,AUC(0-t),[1]; 50 mg/kg/day i.v. bolus,637 µg·h/mL
same,Cl (plasma clearance),[1]; 50 mg/kg/day i.v. bolus,2.57 mL/min/kg
same,Kel,[1]; 50 mg/kg/day i.v. bolus,0.5109 h⁻¹
same,T1/2 (plasma half-life),[1]; 50 mg/kg/day i.v. bolus,81.6 min
same,Tmax,[1]; 50 mg/kg/day i.v. bolus,4.98 min
same,Cmax,"[1]; 50 mg/kg/day i.v. bolus, after second bolus injection",679 µg/mL
same,Tumour weight as % of saline control,"[2]; BxPC-3 (pancreatic), Gemcitabine resistant, CD-1, SEQ ID NO:1 10 mg/kg i.v. every other day 17 times",5.8%
same,"Antitumour effect (tumour volume, FIG. 9)","[2]; BxPC-3 gemcitabine resistant, CD-1 nude mice, SEQ ID NO:1 10 mg/kg i.v. every other day",significant delay of tumour growth compared to saline control
same,"AUC, mean (coefficient of variation)",[3]; 37 mg/m^2/day CVI,7.54 (141)^$ μg · hr/ml
same,Clearance,[3]; 37 mg/m^2/day CVI,595 L/m^2/day
same,"Cmax, mean (coefficient of variation)",[3]; 37 mg/m^2/day CVI,0.09 (141) μg/ml
same,"Css, mean (coefficient of variation)",[3]; 37 mg/m^2/day CVI,0.03 (141) μg/ml
same,"AUC, mean (coefficient of variation)",[3]; 74 mg/m^2/day CVI,15.5 (141) μg · hr/ml
same,"Cmax, mean (coefficient of variation)",[3]; 74 mg/m^2/day CVI,0.61 (141) μg/ml
same,"AUC, mean (coefficient of variation)",[3]; 148 mg/m^2/day CVI,426 (87) μg · hr/ml
same,"Clearance, mean (coefficient of variation)",[3]; 148 mg/m^2/day CVI,244 (90) L/m^2/day
same,"Cmax, mean (coefficient of variation)",[3]; 148 mg/m^2/day CVI,2.2 (41) μg/ml
same,"Css, mean (coefficient of variation)",[3]; 148 mg/m^2/day CVI,0.77 (94) μg/ml
same,"T1/2, mean (coefficient of variation)",[3]; 148 mg/m^2/day CVI,0.79 (25) hr
same,"AUC, mean (coefficient of variation)",[3]; 185 mg/m^2/day CVI,340 (67) μg · hr/ml
same,"Clearance, mean (coefficient of variation)",[3]; 185 mg/m^2/day CVI,558 (119) L/m^2/day
same,"Cmax, mean (coefficient of variation)",[3]; 185 mg/m^2/day CVI,2.15 (57) μg/ml
same,"Css, mean (coefficient of variation)",[3]; 185 mg/m^2/day CVI,0.63 (98) μg/ml
same,"T1/2, mean (coefficient of variation)",[3]; 185 mg/m^2/day CVI,2.74 (171) hr
same,"AUC, mean (coefficient of variation)",[3]; 222 mg/m^2/day CVI,380 (94) μg · hr/ml
same,"Clearance, mean (coefficient of variation)",[3]; 222 mg/m^2/day CVI,483 (161) L/m^2/day
same,"Cmax, mean (coefficient of variation)",[3]; 222 mg/m^2/day CVI,2.98 (99) μg/ml
same,"Css, mean (coefficient of variation)",[3]; 222 mg/m^2/day CVI,1.24 (87) μg/ml
same,"T1/2, mean (coefficient of variation)",[3]; 222 mg/m^2/day CVI,1.43 (46) hr
same,mean steady-state plasma concentration,"[3]; phase II dose (185 mg/m^2/day), preliminary analysis",0.6 µg/mL
same,t1/2,[3]; preliminary analysis,about 2 hrs
